This is an account of results in patent US9988430B2, “Stable GLP-1 based GLP-1/glucagon receptor co-agonists” (Novo Nordisk A/S, priority 2014, dated 2018).

*1 amine or outer side, *2 acyl side, *3 side chain or, on linkers, in order; H or OH if unused. Where a SMILES comes first, the peptide text is derived from it. Bridges are numbered along the chain shown (N, C = ends). Roman numbers before positions name the chains, in order. Side-chain parts run from the residue outwards. [ ]: non-standard residue; d: D form. The star is where a group is joined. C18 diacid = O=C(O)CCCCCCCCCCCCCCCCC(=O)*; γGlu = O=C(O)[C@H](CCC(=O)[*:2])N[*:1]; Desaminohistidyl = O=C(CCc1c[nH]cn1)*; Ac4c = NC1(C(=O)O)CCC1; AEEA = NCCOCCOCC(=O)O; Aib = CC(C)(N)C(=O)O

In one series the target is T1, human GLP-1 receptor (Homo sapiens, UniProt P43220).
T1 construct: expressed in transfected cells; host or cells: membranes of BHK cells, parent line BHKTS13, clone FCW467-12A
As to the kind of experiment: Assay (I)(a): GLP-1 receptor potency, CRE luciferase reporter gene assay in BHK cells. In kind it is cell-based. To be noted: BHK cells expressing human GLP-1 receptor, read-out: EC50 GLP-1R. The essentials: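 BHK cells (clone FCW467-12A/KZ10-1), 5×10EE3/well, exposed 3 h at 37° C to compound at 1×10EE-13 to 1×10EE-6 M final in medium with 2% ovalbumin and 0.2% Pluronic F-68. Luciferase luminescence read; EC50 (pM) from four-parameter fit.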

Series [1] can be described thus: Assay (V): chemical stability assessment by RP-UPLC. The format is physicochemical. To be noted: 14 days at 37° C. in phosphate buffer (pH 7.3). On the procedure:
Assay (V): Chemical Stability Assessment
The purpose of this assay is to assess the chemical stability of the GLP-1 derivatives of the present invention in aqueous solutions.
Chemical stability of GLP-1 derivatives may be investigated by RP-UPLC separation and UV detection. Lyophilized samples are dissolved in a 8 mM Phosphate buffer pH 8.6, followed by adjustment to pH 7.3 using HCl to a final concentration of 333 μM. Samples are incubated for 14 days at 5° C. and 37° C. followed by RP-UPLC analysis. Purity is defined as the area percentage of the main peak in relation to the total area of all integrated peaks in each chromatogram. Purity loss, also referred to herein as chemical degradation, after 14 days at 37° C. is determined as the difference in purity between the samples incubated at 5° C. and 37° C., divided by the purity of the sample after incubation for 14 days at 5° C.
RP-UPLC analysis is performed using a Waters BEH130 2.1 mm×150 mm, 1.7 μm column operated at 50° C. and a flow rate of 0.4 mL/min using a mobile phase system consisting of A: 0.05% TFA in MQ-water, and B: 0.05% TFA in Acetonitrile. UV-detection is performed at 215 nm. The typical gradient profile used for most of the samples is shown below.
For some individual derivatives eluting at substantially different retention times compared with the majority of derivatives, some adjustments to the gradient profile are made to better enable purity assessment comparison across samples.

A further series has as its target T2, human glucagon receptor (Homo sapiens, UniProt P47871).
T2 construct: expressed in transfected cells; host or cells: membranes of BHK cells, clone BHK hGCGR A3*25
Put plainly: Assay (II)(b): glucagon receptor binding, [125I]-glucagon displacement, SPA on BHK membranes. The following applies: displacement of [125I]-glucagon, membranes with human glucagon receptor; read-out: IC50 GlucagonR. On the procedure:
Assay (II): GLP-1 and Glucagon Receptor Binding The purpose of this assay is to test the in vitro receptor binding activity of the GLP-1 derivatives of the invention. (b) Glucagon Receptor Binding The glucagon receptor (glucagonR) binding activity is a measure of affinity of a derivative for the human glucagon receptor. The glucagon receptor binding of each derivative were determined with competitive binding, displacing [^125I]-glucagon bound to glucagon receptors expressed in cell membranes associated with wheat germ agglutinin (WGA) scintillation proximity assay (SPA) beads. Each derivative was added in a series of concentrations to isolated membranes comprising the human glucagon receptor and displacement of the labelled ligand was monitored. The receptor binding was reported as the concentration at which half of the labelled ligand is displaced from the receptor, the IC^50 value. The following chemicals were used in the assay: DMEM w Glutamax (Gibco 61965-026), Pen/strep (Invitrogen 15140-122), G418 (Invitrogen 10131-027), Versene (Gibco 15040), 1 M Hepes (Gibco 15630), PBS (Invitrogen 14190-094), fetal calf serum (Invitrogen 16140-071), MgCl2 (Merck 1.05832.1000), EDTA (Invitrogen 15575-038), CaCl2 (Sigma, C5080), Tween 20 (Amresco 0850C335), ovalbumin (Sigma A5503), SPA particles (wheat germ agglutinin (WGA) SPA beads, Perkin Elmer RPNQ0001), [125I]-glucagon (produced in-house), OptiPlate™-96 (Packard 6005290). HME buffer consisted of 25 mM HEPES, 2 mM MgCl2 and 1 mM EDTA, and pH was adjusted to 7.4. Assay buffer consisted of 50 mM HEPES supplemented with 5 mM MgCl2, 1 mM CaCl2, 0.02% Tween 20 and 0.1% Ovalbumin, and pH was adjusted to 7.4. The cells used in this assay (clone BHK hGCGR A3*25) were BHK cells stable transfected with an expression plasmid comprising the cDNA encoding the human glucagon receptor. The cells were grown at 5% CO2 in DMEM, 10% fetal calf serum, 1% Pen/Strep (Penicillin/Streptomycin) and 1.0 mg/ml of the selection marker G418. To make a membrane preparation the cells were grown to approximately 80% confluence. The cells were washed twice in phosphate-buffered saline and harvested. The cells were pelleted using a brief centrifugation and the cell pellet was kept on ice. Lyse the cells by adding approx. 5 ml HME buffer, mix by pipetting and snap freeze in liquid nitrogen. Thaw quickly and add HME buffer to 10 ml. The cell pellet was homogenised with an ULTRA-THURRAX dispersing instrument for 20-30 seconds. The homogenate was centrifuged at 20.000×G, 4° C. for 10 minutes. The pellet was resuspended (homogenised) in 1-2 ml HME buffer. The protein concentration was determined. The membranes were aliquoted and snapfrozen in liquid nitrogen and stored at minus 80° C. • 1. For the receptor binding assay 50 μl of the assay buffer was added to each well of an assay plate. • 2. Test compounds were serially diluted to give the following concentrations: 8×10EE-7 M, 8×10EE-8 M, 8×10EE-9 M, 8×10EE-10 M, 8×10EE-11 M, 8×10EE-12 M and 8×10EE-13 M. Twenty-five μl were added to appropriate wells in the assay plate. • 3. Cell membrane aliquots were thawed and diluted to their working concentration. Fifty μl were added to each well in the assay plate. • 4. WGA SPA beads were suspended in assay buffer at 20 mg/ml. The suspension was diluted to 10 mg/ml in assay buffer just prior to addition to the assay plate. Fifty μl were added to each well in the assay plate. • 5. The incubation was started by adding 25 μl of 480 pM solution of [125I]-glucagon to each well of the assay plate. A 25 μl aliquot was reserved for measuring total counts/well. • 6. The assay plate was incubated for 2 h at 25° C. • 7. The assay plate was centrifuged for 10 min at 1500 rpm. • 8. The assay plate was read in a Perkin Elmer TopCount NXT instrument. Calculations The data from the TopCount instrument were transferred to GraphPad Prism software. The software averaged the values for the replicates and performed a non-linear regression. […]
For orientation: Loss of bound radioactivity is the signal in a displacement assay; it reports binding, not function.

Usually EC50 stands for the concentration needed to bring the measured effect to its halfway point. For orientation: IC50 means the concentration needed to halve the response being measured.

T1 sequence (P43220 24-463): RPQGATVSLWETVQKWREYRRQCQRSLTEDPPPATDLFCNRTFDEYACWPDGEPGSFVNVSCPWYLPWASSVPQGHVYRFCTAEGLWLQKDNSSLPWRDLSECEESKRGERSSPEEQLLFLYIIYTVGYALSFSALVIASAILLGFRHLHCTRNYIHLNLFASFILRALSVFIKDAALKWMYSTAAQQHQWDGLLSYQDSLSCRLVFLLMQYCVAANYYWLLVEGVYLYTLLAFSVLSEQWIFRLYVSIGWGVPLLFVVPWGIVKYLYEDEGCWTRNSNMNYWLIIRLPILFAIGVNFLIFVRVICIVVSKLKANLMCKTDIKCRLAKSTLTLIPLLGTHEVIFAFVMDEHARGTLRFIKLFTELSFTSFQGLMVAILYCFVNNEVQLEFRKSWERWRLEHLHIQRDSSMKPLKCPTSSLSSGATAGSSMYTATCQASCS
T2 sequence (P47871 26-477): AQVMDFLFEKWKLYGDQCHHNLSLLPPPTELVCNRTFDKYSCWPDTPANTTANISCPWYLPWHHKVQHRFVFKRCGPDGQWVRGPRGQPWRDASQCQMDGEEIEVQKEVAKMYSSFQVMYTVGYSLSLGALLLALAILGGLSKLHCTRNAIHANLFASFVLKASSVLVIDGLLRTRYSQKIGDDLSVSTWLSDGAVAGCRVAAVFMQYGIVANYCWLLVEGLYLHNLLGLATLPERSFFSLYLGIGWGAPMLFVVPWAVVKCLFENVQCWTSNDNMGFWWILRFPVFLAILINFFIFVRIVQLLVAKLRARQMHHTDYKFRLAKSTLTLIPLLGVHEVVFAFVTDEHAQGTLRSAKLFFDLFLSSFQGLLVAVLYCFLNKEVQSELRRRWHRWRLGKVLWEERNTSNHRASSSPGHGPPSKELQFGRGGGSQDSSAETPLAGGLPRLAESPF

As to `CC[C@H](C)[C@H](NC(=O)[C@H](Cc1ccccc1)NC(=O)[C@H](CCC(=O)O)NC(=O)[C@H](CCCNC(=N)N)NC(=O)[C@H](C)NC(=O)[C@H](C)NC(=O)[C@H](CCC(N)=O)NC(=O)[C@H](CCC(=O)O)NC(=O)[C@H](CCC(=O)O)NC(=O)[C@H](CC(C)C)NC(=O)[C@H](Cc1ccc(O)cc1)NC(=O)[C@H](CCCCN)NC(=O)[C@H](CO)NC(=O)[C@H](Cc1ccc(O)cc1)NC(=O)[C@H](CC(=O)O)NC(=O)[C@H](CO)NC(=O)[C@@H](NC(=O)[C@H](Cc1ccccc1)NC(=O)[C@@H](NC(=O)CNC(=O)[C@H](Cc1c[nH]cn1)NC(=O)C1(NC(=O)CCc2c[nH]cn2)CCC1)[C@@H](C)O)[C@@H](C)O)C(=O)N[C@@H](C)C(=O)N[C@@H](Cc1c[nH]c2ccccc12)C(=O)N[C@@H](CC(C)C)C(=O)N[C@@H](CC(C)C)C(=O)N[C@@H](CCCCN)C(=O)N[C@@H](CCCCNC(=O)CC[C@H](NC(=O)COCCOCCNC(=O)CC[C@H](NC(=O)COCCOCCNC(=O)CC[C@H](NC(=O)COCCOCCNC(=O)CC[C@H](NC(=O)CC[C@H](NC(=O)CCCCCCCCCCCCCCCCC(=O)O)C(=O)O)C(=O)O)C(=O)O)C(=O)O)C(=O)O)C(N)=O` [Example 21, N^ε35-[(4S)-4-carboxy-4-[[2-[2-[2-[[(4S)-4-carboxy-4-[[2-[2-[2-[[(4S)-4-carboxy-4-[[2-[2-[2-[[(4S)-4-carboxy-4-[[(4S)-4-carboxy-4-(17-carboxyheptadecanoylamino)butanoyl]amino]butanoyl]amino]ethoxy]ethoxy]acetyl]amino]butanoyl]amino]ethoxy]ethoxy]acetyl]amino]butanoyl]amino]ethoxy]ethoxy]acetyl]amino]butanoyl]-[Imp7,Acb8,His9,Tyr16,Lys18,Glu22,Arg26,Leu33,Lys35]-GLP-1-(7-35)-peptide amide] (Desaminohistidyl-[Ac4c]HGTFTSDYSKYLEEQAAREFIAWLLKK([γGlu-AEEA-γGlu-AEEA-γGlu-AEEA-γGlu-γGlu-C18 diacid])-NH2), at human GLP-1 receptor, the EC50 turned out to be 3 pM. Further, the “Chemical stability: Chemical degradation over 14 days at 37° C.” value in series [1] is on record as 1.6%. In the case of `CC[C@H](C)[C@H](NC(=O)[C@H](Cc1ccccc1)NC(=O)[C@H](CCC(=O)O)NC(=O)[C@H](CCCNC(=N)N)NC(=O)[C@H](C)NC(=O)[C@H](C)NC(=O)[C@H](CCCNC(=N)N)NC(=O)[C@H](CCCNC(=N)N)NC(=O)[C@H](CCC(=O)O)NC(=O)[C@H](CC(C)C)NC(=O)[C@H](Cc1ccc(O)cc1)NC(=O)[C@H](CCCCN)NC(=O)[C@H](CO)NC(=O)[C@H](Cc1ccc(O)cc1)NC(=O)[C@H](CC(=O)O)NC(=O)[C@H](CO)NC(=O)[C@@H](NC(=O)[C@H](Cc1ccccc1)NC(=O)[C@@H](NC(=O)CNC(=O)[C@H](Cc1c[nH]cn1)NC(=O)C1(NC(=O)CCc2c[nH]cn2)CCC1)[C@@H](C)O)[C@@H](C)O)C(=O)N[C@@H](C)C(=O)N[C@@H](Cc1c[nH]c2ccccc12)C(=O)N[C@@H](CC(C)C)C(=O)N[C@@H](CC(C)C)C(=O)N[C@@H](CCCCN)C(=O)N[C@@H](CCCCNC(=O)CC[C@H](NC(=O)COCCOCCNC(=O)CC[C@H](NC(=O)COCCOCCNC(=O)CC[C@H](NC(=O)COCCOCCNC(=O)CC[C@H](NC(=O)CC[C@H](NC(=O)CCCCCCCCCCCCCCCCC(=O)O)C(=O)O)C(=O)O)C(=O)O)C(=O)O)C(=O)O)C(N)=O` [Example 24, N^ε35-[(4S)-4-carboxy-4-[[2-[2-[2-[[(4S)-4-carboxy-4-[[2-[2-[2-[[(4S)-4-carboxy-4-[[2-[2-[2-[[(4S)-4-carboxy-4-[[(4S)-4-carboxy-4-(17-carboxyheptadecanoylamino)butanoyl]amino]butanoyl]amino]ethoxy]ethoxy]acetyl]amino]butanoyl]amino]ethoxy]ethoxy]acetyl]amino]butanoyl]amino]ethoxy]ethoxy]acetyl]amino]butanoyl]-[Imp7,Acb8,His9,Tyr16,Lys18,Arg22,Arg23,Arg26, Leu33, Lys35]-GLP-1-(7-35)-peptide amide] (Desaminohistidyl-[Ac4c]HGTFTSDYSKYLERRAAREFIAWLLKK([γGlu-AEEA-γGlu-AEEA-γGlu-AEEA-γGlu-γGlu-C18 diacid])-NH2), the EC50 at human GLP-1 receptor stood at 8 pM. Besides, the “Chemical stability: Chemical degradation over 14 days at 37° C.” value in series [1] is on record as 2.2%. For `CC[C@H](C)[C@H](NC(=O)[C@H](Cc1ccccc1)NC(=O)[C@H](CCC(=O)O)NC(=O)[C@H](CCCNC(=N)N)NC(=O)[C@H](C)NC(=O)[C@H](C)NC(=O)[C@H](CCC(N)=O)NC(=O)[C@H](CCC(=O)O)NC(=O)[C@H](CCC(=O)O)NC(=O)[C@H](CC(C)C)NC(=O)[C@H](Cc1ccc(O)cc1)NC(=O)[C@H](CCCCN)NC(=O)[C@H](CO)NC(=O)[C@@H](NC(=O)[C@H](CC(=O)O)NC(=O)[C@H](CO)NC(=O)[C@@H](NC(=O)[C@H](Cc1ccccc1)NC(=O)[C@@H](NC(=O)CNC(=O)[C@H](Cc1c[nH]cn1)NC(=O)C(C)(C)NC(=O)CCc1c[nH]cn1)[C@@H](C)O)[C@@H](C)O)C(C)C)C(=O)N[C@@H](C)C(=O)N[C@@H](Cc1c[nH]c2ccccc12)C(=O)N[C@@H](CC(C)C)C(=O)N[C@@H](CC(C)C)C(=O)N[C@@H](CCCCNC(=O)CNC(=O)[C@H](CO)NC(=O)[C@H](CCC(=O)O)NC(=O)CNC(=O)[C@H](CO)NC(=O)CC[C@H](NC(=O)CC[C@H](NC(=O)CCCCCCCCCCCCCCCCC(=O)O)C(=O)O)C(=O)O)C(=O)N[C@H](C(=O)O)[C@@H](C)O` [Example 25, N^ε34-[2-[[(2S)-2-[[(2S)-4-carboxy-2-[[2-[[(2S)-2-[[(4S)-4-carboxy-4-[[(4S)-4-carboxy-4-(17-carboxyheptadecanoylamino)butanoyl]amino]butanoyl]amino]-3-hydroxypropanoyl]amino]acetyl]amino]butanoyl]amino]-3-hydroxypropanoyl]amino]acetyl]-[Imp7,Aib8,His9,Lys18,Glu22,Arg26,Leu33,Thr35]-GLP-1-(7-35)-peptide] (I: Desaminohistidyl-[Aib]HGTFTSDVSKYLEEQAAREFIAWLLKT-OH / II: {C18 diacid-γGlu-γGlu}-SGESG; amide I:27-II:C), the IC50 on human glucagon receptor came out at 18800 pM.
